Experimental data reported in ChEMBL document CHEMBL1201862, “PubChem BioAssay data set” (2004).
Calls of active or inactive are those of the source.

What was measured:
[1] = target: Neurotensin receptor type 1 (Homo sapiens, UniProt P30989); assay type: functional;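 also: Image-based confirmatory dose-response assay measuring agonist activity at NTR1; NTR1-expressing U2OS osteosarcoma cells imaged for beta-arrestin GFP spot formation; agonist potency where compounds increase beta-arrestin recruitment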
Sequence of Neurotensin receptor type 1 (P30989 whole entry): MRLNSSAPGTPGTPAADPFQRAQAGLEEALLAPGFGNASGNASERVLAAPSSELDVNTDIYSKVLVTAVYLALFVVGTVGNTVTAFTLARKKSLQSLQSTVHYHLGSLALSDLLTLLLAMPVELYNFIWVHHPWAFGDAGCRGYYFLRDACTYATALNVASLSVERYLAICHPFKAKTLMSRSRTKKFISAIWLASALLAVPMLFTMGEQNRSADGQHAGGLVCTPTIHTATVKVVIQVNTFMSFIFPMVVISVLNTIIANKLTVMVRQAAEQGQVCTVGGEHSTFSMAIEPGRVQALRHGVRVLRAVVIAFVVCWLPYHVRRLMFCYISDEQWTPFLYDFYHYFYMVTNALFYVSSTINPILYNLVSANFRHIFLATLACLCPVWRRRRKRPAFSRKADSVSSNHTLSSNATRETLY

Cytochrome P450 2C19 = Cytochrome P450 2C19 (Homo sapiens, UniProt P33261); assay: Cytochrome panel assay with activity outcomes. Panel member name: p450-cyp2c19 Compounds with AC50 equal or less than 10 uM are considered active; assay type: functional; settings: read-out: AC50
Sequence of Cytochrome P450 2C19 (P33261 whole entry): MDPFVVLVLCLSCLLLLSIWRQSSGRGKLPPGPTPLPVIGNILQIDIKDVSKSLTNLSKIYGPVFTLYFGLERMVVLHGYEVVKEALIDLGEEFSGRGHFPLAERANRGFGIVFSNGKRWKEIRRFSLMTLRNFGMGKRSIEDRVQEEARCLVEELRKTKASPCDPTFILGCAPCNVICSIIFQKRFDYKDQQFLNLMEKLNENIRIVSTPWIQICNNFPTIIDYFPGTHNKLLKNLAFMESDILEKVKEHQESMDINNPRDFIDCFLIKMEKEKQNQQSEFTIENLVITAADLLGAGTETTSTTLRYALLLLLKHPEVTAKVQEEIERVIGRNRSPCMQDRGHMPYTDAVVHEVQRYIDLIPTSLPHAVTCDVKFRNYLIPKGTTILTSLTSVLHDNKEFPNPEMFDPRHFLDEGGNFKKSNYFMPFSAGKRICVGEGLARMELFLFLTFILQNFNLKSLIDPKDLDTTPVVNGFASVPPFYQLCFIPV

Cytochrome P450 1A2 = target: T1, Cytochrome P450 1A2 (Homo sapiens, UniProt P05177);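 also: PubChem cytochrome P450 panel assay, CYP1A2 panel member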
T1 sequence (P05177 whole entry): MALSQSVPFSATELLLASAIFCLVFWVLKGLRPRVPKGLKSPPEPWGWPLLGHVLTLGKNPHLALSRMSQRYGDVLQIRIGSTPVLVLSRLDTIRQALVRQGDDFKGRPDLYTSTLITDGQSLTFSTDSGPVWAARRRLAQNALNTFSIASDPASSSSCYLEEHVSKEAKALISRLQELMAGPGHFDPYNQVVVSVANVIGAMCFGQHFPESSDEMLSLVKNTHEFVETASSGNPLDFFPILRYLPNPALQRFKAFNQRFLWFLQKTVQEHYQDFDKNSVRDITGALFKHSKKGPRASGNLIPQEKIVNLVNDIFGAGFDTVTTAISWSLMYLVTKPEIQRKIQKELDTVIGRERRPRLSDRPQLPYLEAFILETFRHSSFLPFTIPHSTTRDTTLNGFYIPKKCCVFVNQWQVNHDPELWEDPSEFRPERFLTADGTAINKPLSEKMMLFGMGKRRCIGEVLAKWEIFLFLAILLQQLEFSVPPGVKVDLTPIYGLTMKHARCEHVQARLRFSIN

Cytochrome P450 2C9 = Cytochrome P450 2C9 (Homo sapiens, UniProt P11712)
Sequence of Cytochrome P450 2C9 (P11712 whole entry): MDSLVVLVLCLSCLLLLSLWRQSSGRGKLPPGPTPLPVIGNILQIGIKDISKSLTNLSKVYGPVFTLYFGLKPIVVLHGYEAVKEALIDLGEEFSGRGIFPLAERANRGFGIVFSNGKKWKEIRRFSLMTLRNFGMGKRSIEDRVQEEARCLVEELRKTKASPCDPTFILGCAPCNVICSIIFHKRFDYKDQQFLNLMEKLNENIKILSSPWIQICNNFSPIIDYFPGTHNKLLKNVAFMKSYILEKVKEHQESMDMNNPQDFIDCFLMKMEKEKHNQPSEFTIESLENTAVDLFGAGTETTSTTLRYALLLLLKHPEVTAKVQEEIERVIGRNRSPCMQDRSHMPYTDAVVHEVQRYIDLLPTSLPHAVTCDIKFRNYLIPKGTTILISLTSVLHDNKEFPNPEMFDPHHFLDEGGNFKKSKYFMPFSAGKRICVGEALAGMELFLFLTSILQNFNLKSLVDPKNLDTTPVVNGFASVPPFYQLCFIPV

[2] = Trypanosoma cruzi growth suppression in host cells – NIH3T3 host cells, beta-gal luminescence, confirmation (AID 2044); assay type: functional, cell-based;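 also: intracellular parasites grown in NIH/3T3 mouse fibroblasts as host cells; luminescent beta-galactosidase reporter signal from transgenic T. cruzi replicating inside host cells; inhibitors lower the luminescence signal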
Mucolipin-3 = target: T2, Mucolipin-3 (Homo sapiens, UniProt Q8TDD5); assay: Dose response cell-based high-throughput screening assay for agonists of the transient receptor potential channel ML3 (TRPML3). [Related pubchem assays: 1526, 1424, 1448 ]; assay type: functional
T2 sequence (Q8TDD5 whole entry): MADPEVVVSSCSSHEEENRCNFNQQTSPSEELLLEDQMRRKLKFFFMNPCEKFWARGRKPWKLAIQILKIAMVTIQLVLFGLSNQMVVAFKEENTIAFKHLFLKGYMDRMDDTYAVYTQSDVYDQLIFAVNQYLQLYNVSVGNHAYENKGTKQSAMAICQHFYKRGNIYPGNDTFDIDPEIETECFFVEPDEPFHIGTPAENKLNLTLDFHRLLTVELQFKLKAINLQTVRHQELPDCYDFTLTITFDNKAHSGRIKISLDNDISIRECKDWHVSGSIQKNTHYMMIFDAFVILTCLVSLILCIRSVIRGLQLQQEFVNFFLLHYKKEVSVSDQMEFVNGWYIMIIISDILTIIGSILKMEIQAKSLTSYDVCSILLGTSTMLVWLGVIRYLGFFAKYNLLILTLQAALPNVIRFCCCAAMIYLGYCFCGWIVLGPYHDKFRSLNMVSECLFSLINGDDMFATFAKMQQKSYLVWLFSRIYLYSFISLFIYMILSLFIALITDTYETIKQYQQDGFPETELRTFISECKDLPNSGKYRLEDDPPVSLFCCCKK

[3] = NIH3T3 cell viability loss – ATP luminescence, mouse fibroblasts, counter-screen, dose response (AID 2010); assay type: functional, cell-based;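 also: cells exposed to compound for about 90 hours before reading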
Ion channel NompC = Ion channel NompC (Danio rerio, UniProt Q7T1G6); assay: Fluorescence counterscreen assay for TRPML3 agonists: dose response cell-based high-throughput screening assay to identify agonists of the transient receptor potential channel N1 (TRPN1). [Related pubchem assays: 1526, 1424, 1448 ]; assay type: functional
Sequence of Ion channel NompC (Q7T1G6 whole entry): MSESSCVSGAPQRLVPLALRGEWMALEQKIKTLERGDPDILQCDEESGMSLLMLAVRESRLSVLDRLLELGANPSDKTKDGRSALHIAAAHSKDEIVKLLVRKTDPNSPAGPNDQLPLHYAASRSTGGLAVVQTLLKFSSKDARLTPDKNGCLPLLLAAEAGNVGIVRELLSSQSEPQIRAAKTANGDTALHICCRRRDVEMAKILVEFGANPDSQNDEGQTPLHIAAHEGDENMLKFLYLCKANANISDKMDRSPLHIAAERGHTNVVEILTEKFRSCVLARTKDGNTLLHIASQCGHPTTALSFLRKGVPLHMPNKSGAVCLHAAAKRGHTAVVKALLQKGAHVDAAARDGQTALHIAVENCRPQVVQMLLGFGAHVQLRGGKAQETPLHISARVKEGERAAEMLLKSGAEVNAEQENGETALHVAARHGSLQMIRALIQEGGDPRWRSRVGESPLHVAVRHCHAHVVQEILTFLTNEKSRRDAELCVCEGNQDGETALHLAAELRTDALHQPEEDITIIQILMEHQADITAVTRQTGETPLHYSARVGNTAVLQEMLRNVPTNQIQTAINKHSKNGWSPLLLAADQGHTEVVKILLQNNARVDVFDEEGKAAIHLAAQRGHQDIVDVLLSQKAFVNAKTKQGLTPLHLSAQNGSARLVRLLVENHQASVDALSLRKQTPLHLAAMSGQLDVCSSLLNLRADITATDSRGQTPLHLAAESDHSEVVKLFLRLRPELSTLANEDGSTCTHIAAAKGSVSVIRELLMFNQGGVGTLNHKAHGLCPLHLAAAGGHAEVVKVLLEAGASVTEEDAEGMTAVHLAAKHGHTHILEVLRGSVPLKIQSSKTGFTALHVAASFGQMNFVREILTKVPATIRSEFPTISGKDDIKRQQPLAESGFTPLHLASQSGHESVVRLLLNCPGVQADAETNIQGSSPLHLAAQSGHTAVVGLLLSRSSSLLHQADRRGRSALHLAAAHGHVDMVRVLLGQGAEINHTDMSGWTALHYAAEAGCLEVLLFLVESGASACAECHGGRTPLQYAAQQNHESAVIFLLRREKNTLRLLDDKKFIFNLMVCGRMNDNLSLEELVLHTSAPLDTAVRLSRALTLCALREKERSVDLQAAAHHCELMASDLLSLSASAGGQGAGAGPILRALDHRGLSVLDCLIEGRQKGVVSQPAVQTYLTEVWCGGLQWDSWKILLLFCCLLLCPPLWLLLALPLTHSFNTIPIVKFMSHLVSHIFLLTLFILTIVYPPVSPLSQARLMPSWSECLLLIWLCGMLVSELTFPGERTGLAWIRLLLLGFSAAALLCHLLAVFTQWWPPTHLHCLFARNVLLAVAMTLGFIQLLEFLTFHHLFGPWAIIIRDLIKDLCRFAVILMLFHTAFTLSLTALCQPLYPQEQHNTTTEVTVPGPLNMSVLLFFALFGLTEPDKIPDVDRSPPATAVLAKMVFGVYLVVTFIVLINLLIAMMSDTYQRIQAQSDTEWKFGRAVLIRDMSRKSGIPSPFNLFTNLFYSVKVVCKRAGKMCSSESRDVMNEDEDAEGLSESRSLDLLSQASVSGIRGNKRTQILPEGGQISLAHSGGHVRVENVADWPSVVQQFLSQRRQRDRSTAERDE

[4] = target: DNA dC->dU-editing enzyme APOBEC-3A (Homo sapiens, UniProt P31941); assay: Dose Response confirmation of small molecule APOBEC3A DNA Deaminase Inhibitors via a fluorescence-based single-stranded DNA deaminase assay. [Related pubchem assays (depositor defined):AID493011, AID493024]; assay type: functional
Sequence of DNA dC->dU-editing enzyme APOBEC-3A (P31941 whole entry): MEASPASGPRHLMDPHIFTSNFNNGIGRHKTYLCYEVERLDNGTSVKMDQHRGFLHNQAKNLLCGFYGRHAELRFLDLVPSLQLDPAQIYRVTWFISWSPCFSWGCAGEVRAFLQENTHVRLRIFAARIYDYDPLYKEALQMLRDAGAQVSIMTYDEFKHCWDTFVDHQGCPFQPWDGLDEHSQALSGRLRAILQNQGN

[5] = target: DNA dC->dU-editing enzyme APOBEC-3G (Homo sapiens, UniProt Q9HC16); assay type: functional;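 also: Dose-response counterscreen measuring inhibition of APOBEC3G DNA deaminase activity, run while confirming APOBEC3A inhibitors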
Sequence of DNA dC->dU-editing enzyme APOBEC-3G (Q9HC16 whole entry): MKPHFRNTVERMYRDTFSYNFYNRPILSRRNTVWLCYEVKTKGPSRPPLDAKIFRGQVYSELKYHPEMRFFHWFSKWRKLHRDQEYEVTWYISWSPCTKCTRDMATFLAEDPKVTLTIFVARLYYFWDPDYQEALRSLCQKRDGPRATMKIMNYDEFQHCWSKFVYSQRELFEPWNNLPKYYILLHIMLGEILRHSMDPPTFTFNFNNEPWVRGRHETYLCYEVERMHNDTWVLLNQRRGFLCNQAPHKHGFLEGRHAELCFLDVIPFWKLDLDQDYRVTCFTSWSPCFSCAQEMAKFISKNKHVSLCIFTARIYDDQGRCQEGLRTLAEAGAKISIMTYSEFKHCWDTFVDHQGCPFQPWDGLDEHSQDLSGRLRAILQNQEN

[6] = target: T3, Luciferin 4-monooxygenase (Photinus pyralis, UniProt P08659); assay: inhibition of purified Photinus pyralis luciferase – biochemical, luminescence, dose response (AID 1891)
T3 sequence (P08659 whole entry): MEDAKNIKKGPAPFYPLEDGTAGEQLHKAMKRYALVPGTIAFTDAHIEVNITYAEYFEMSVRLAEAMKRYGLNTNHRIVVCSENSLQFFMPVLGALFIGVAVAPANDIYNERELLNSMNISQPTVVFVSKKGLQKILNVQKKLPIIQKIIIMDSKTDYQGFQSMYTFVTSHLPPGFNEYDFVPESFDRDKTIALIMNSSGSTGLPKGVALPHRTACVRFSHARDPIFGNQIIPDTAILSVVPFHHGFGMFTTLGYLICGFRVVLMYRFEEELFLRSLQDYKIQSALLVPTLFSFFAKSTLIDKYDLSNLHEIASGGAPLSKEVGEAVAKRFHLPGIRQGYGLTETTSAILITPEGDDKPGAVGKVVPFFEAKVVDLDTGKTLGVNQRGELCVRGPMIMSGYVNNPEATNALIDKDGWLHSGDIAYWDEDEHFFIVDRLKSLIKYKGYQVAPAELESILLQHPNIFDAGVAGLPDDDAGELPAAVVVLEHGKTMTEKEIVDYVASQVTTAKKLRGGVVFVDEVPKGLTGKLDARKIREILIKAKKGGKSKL

[7] = Luminescence Cell-Based Dose Confirmation HTS to Identify Inhibitors of Platelet Dense Granule Release. [Related pubchem assays: 1663 (Primary HTS), 1678 (Summary of Project)]; assay type: functional
[8] = target: T4, Short transient receptor potential channel 4 (Mus musculus, UniProt Q9QUQ5); assay: potentiation of DAMGO-evoked TRPC4 calcium signal – cell-based, HEK293 TRPC4/mu-opioid, Fluo-4 calcium, EC20 DAMGO, dose response (AID 434941); assay type: functional
T4 sequence (Q9QUQ5 whole entry): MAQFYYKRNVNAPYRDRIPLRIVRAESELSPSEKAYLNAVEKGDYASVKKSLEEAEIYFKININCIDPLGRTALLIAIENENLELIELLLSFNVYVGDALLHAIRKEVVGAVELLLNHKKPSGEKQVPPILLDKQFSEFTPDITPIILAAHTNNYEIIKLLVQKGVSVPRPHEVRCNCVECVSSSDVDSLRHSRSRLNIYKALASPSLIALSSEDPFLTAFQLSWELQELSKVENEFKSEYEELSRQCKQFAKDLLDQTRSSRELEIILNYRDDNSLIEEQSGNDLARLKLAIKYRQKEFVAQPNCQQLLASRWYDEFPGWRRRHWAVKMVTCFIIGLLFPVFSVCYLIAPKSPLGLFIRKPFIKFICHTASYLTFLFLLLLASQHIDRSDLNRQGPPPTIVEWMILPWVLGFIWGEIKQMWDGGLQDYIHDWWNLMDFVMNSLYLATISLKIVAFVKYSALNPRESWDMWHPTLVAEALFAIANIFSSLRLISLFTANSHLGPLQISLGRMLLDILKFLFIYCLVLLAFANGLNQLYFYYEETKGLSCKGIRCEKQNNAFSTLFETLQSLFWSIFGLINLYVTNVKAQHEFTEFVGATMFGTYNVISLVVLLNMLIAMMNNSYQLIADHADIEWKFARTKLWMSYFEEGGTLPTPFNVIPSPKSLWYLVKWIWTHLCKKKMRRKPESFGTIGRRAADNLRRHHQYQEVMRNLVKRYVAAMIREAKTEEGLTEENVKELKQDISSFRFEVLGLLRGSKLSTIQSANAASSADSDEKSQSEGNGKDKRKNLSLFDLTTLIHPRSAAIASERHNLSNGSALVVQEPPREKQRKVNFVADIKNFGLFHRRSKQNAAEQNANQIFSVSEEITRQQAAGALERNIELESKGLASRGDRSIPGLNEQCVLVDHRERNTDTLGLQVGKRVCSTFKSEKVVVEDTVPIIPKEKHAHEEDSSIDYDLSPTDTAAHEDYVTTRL

[9] = target: T3, Luciferin 4-monooxygenase; assay: Counter Screen for Luciferase-based Assay Positives. [Related pubchem assays: 620, 618, 411 ]
HT-1080 = assay: HT1080 cell viability loss – fluorescence readout (AID 620); assay type: functional, cell-based; settings: Homo sapiens
[10] = A Cell Based Secondary Assay To Explore Cytotoxicity of Compounds that Sensitize Mycobacterium Tuberculosis to Beta-Lactam Antibiotics.; assay type: functional
[11] = target: Alkaline phosphatase, placental type (Homo sapiens, UniProt P05187); assay: human placental alkaline phosphatase inhibition – biochemical, luminescence, confirmation (AID 1512); assay type: functional
Sequence of Alkaline phosphatase, placental type (P05187 whole entry): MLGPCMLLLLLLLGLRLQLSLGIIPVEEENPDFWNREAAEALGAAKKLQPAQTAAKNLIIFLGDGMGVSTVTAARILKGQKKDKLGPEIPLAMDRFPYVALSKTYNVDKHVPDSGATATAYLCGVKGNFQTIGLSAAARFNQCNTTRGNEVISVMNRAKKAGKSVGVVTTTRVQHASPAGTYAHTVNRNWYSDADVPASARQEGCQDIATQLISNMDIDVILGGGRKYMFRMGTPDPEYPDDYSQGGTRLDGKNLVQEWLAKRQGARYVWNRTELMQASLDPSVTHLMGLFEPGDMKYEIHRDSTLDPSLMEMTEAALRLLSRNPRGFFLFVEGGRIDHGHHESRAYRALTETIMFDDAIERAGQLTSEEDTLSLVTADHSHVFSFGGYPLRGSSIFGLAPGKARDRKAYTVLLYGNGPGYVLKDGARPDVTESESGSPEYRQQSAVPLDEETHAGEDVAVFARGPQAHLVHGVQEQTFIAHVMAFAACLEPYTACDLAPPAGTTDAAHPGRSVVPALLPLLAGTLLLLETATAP

## Cc1cccc(N2C(=O)NC(=O)/C(=C\c3cnn(-c4ccccc4)c3)C2=O)c1
[1]
  EC50: 13 µM (active)
Cytochrome P450 2C19
  AC50: 39.8 µM (inconclusive)
Cytochrome P450 1A2
  AC50: 25.1 µM (inconclusive)
Cytochrome P450 2C9
  AC50: 39.8 µM (inconclusive)

## CCOc1ccc(S(=O)(=O)NC(C)(C)C)cc1-c1nc(O)c2c(n1)c(C(C)(C)C)nn2C
[2]
  EC50: 1.26 µM (active)
Mucolipin-3
  EC50: 781 nM (active)
[3]
  EC50: 8.45 µM (active)
Ion channel NompC
  EC50: > 29.9 µM (not active)

## C=CCNC1=N[C@@H](c2ccccc2)C(C(=O)OC)=C(C)N1CCOC
[4]
  IC50: 4.03 µM (active)
[5]
  IC50: 6.15 µM (active)

## CN(C)CC1CCCCC1OC(=O)Cc1ccc(Cl)c([N+](=O)[O-])c1 (stereo not given)
[4]
  IC50: 2.81 µM (active)
[5]
  IC50: 4.69 µM (active)

## C1CCN(c2nc(N3CCCC3)nc(N3CCNCC3)n2)C1
[6]
  EC50: > 112 µM (not active)
[7]
  EC50: > 112 µM (not active)
[8]
  EC50: 2.66 µM (active)

## CNc1nc(N2CCc3ccccc32)ncc1F
[8]
  EC50: 0.75 µM (active)

## Cc1ccc(OCc2nc(-c3ccccn3)no2)c(Br)c1
[9]
  EC50: < 200 nM (active)
HT-1080
  EC50: > 50 µM (not active)

## Cc1ccc(N=C(S)Nc2ncccc2C)c(C)c1
[10]
  CC50: > 40 µM (active)

## CCN(CC(=O)Nc1cccc(F)c1)Cc1nc(O)c2ccccc2n1
[11]
  IC50: > 100 µM (inactive)
